Data published in US20250127778A1, “CANCER IMMUNOTHERAPY COMPOSITION CONTAINING INTERACTION INHIBITOR OF STING AND TRIM29 AS ACTIVE INGREDIENT” (SPARK BIOPHARMA, INC, priority 2021, published 2025).

How the values were obtained:
[1] = tested on: phosphorylation of downstream signaling proteins TBK1 and IRF3; experiment: Western blotting of STING sub-immune signaling pathway activation; type: cell-based; conditions: cGAMP alone; FIG. 7
Protocol: First, the A431 cell line was seeded in a transparent 12-well plate and cultured for one day. Thereafter, the cells were treated with the compounds of Formulas 1 to 6, respectively, and then cultured for additional 24 hours. Finally, after supernatant culture medium of the cells was removed, the remaining supernatant was diluted and removed with PBS (phosphate buffer saline) to prepare a Western blotting sample. All procedures for preparing Western blotting sample were performed at 4° C. […] The protein concentration of the supernatant was measured by using the Micro BCA™ protein assay kit (ThermoFisher) according to the protocol of the manufacturer. […] The treated samples were analyzed by SDS-PAGE, then transferred to a PVDF membrane, and cultured in a TBST solution containing 4% BSA for 30 minutes. […] Finally, after four TBST washing processes, the solution was developed with an ECL (enhanced chemiluminescence) prime solution of Amersham, the chemical luminescence signal was measured by using ChemiDoc MP of Bio-Rad Laboratories, Inc., the obtained results were quantified by using the ImageLab 6.0 program, and the results were plotted by using the Prism 8.0 program. […]

[2] = Body weight and toxicity signals in CT26 syngeneic mouse model; type: in vivo; conditions: treated individually or in combination, FIG. 24
Protocol: 2×10^5 CT26 cell lines were prepared in 50 μL culture medium and subcutaneously injected. […] The cGAMP solution was manufactured with a final composition of PEG400:distilled water=40:60, and 20 μL was injected each time. The solution of the compound of Formula 1 was manufactured with the composition of DMSO:PEG400:distilled water=2:40:58, and 20 μL was injected each time. The cGAMP solution was injected once every two days, four times in total, and the solution of the compound of Formula 1 was injected once every four days, two times in total, starting with the second administration of cGAMP. The size of the tumor was measured by using calipers every two days, and the volume thereof was calculated as (length×width×height/2). The body weight of the mice was also measured every two days.

## Nc1nc2c(ncn2[C@@H]2O[C@@H]3COP(=O)(O)O[C@H]4[C@@H](O)[C@H](n5cnc6c(N)ncnc65)O[C@@H]4COP(=O)(O)O[C@@H]2[C@@H]3O)c(=O)[nH]1 [cGAMP, 2′,3′-Cyclic GMP-AMP, reference compound]
[1]
  phosphorylation of TBK1 and IRF3: increased
[2]
  body weight change or signal of toxicity: significant change in body weight or signal of toxicity was not observed
